Assay results: US20110166112A1, “METHOD FOR STIMULATING PLATELET PRODUCTION” (Eisai, Inc., priority 2009, published 2011)
Marks after values point to notes of the source that are not given here.

System: subjects with chronic ITP
Test: Recurrence of thrombocytopenia upon discontinuation of E5501 (platelet count below 10,000/mm^3)
Type: in vivo, human
Conditions: for Recurrence of thrombocytopenia: Relation To E5501: assessed by the investigator
Description: Recurrence of Thrombocytopenia. Recurrence of thrombocytopenia has been previously reported and is of special interest in this population. Recurrence of thrombocytopenia was defined as a platelet count that decreased to below 10,000/mm^3 upon discontinuation of E5501. In this study, 9 subjects potentially met the criteria for recurrence of thrombocytopenia. Three were deemed serious; all 3 recovered.
All 9 cases occurred at an E5501 dose of 10 mg or above, and the majority (n=6/9) occurred within 2 weeks after discontinuation of E5501 (FIG. 3). However, recurrent thrombocytopenia was seen up to 4 weeks after the last dose of study drug.

SMILES: O=C(Nc1nc(-c2cc(Cl)cs2)c(N2CCN(C3CCCCC3)CC2)s1)c1cnc(N2CCC(C(=O)O)CC2)c(Cl)c1 [E5501, 1-(3-chloro-5-{[4-(4-chlorothiophen-2-yl)-5-(4-cyclohexylpiperazin-1-yl)thiazol-2-yl]carbamoyl}pyridine-2-yl)piperidine-4-carboxylic acid]
- Recurrence of thrombocytopenia: Outcome (Subject A, 20-30 mg, 1st entry): Recovered
- Recurrence of thrombocytopenia: Platelet Count (Subject A, 20-30 mg, 1st entry): 3 K/mm^3
- Recurrence of thrombocytopenia: Serious (Subject A, 20-30 mg, 1st entry): No
- Recurrence of thrombocytopenia: Study Days (No. Days Posttreatment) (Subject A, 20-30 mg, 1st entry): 193 (17) Days
- Recurrence of thrombocytopenia: Relation To E5501 (Subject A, 20-30 mg, 1st entry): Not related
- Recurrence of thrombocytopenia: Outcome (Subject A, 20-30 mg, 2nd entry): Recovered
- Recurrence of thrombocytopenia: Platelet Count (Subject A, 20-30 mg, 2nd entry): 6 K/mm^3
- Recurrence of thrombocytopenia: Serious (Subject A, 20-30 mg, 2nd entry): No
- Recurrence of thrombocytopenia: Study Days (No. Days Posttreatment) (Subject A, 20-30 mg, 2nd entry): 235 (59) Days
- Recurrence of thrombocytopenia: Relation To E5501 (Subject A, 20-30 mg, 2nd entry): Not related
- Recurrence of thrombocytopenia: Outcome (Subject A, 20-30 mg, 3rd entry): Recovered
- Recurrence of thrombocytopenia: Platelet Count (Subject A, 20-30 mg, 3rd entry): 4 K/mm^3
- Recurrence of thrombocytopenia: Serious (Subject A, 20-30 mg, 3rd entry): No
- Recurrence of thrombocytopenia: Study Days (No. Days Posttreatment) (Subject A, 20-30 mg, 3rd entry): 249 (73) Days
- Recurrence of thrombocytopenia: Relation To E5501 (Subject A, 20-30 mg, 3rd entry): Not related
- Recurrence of thrombocytopenia: Platelet Count (Subject B, 10 mg): 1 K/mm^3
- Recurrence of thrombocytopenia: Serious (Subject B, 10 mg): No
- Recurrence of thrombocytopenia: Study Days (No. Days Posttreatment) (Subject B, 10 mg): 209 (28) Days
- Recurrence of thrombocytopenia: Outcome (Subject C, 10-20 mg): Recovered
- Recurrence of thrombocytopenia: Platelet Count (Subject C, 10-20 mg): 6 K/mm^3
- Recurrence of thrombocytopenia: Serious (Subject C, 10-20 mg): No
- Recurrence of thrombocytopenia: Study Days (No. Days Posttreatment) (Subject C, 10-20 mg): 182 (14) Days
- Recurrence of thrombocytopenia: Relation To E5501 (Subject C, 10-20 mg): Probably
- Recurrence of thrombocytopenia: Outcome (Subject D, 20 mg): Recovered
- Recurrence of thrombocytopenia: Platelet Count (Subject D, 20 mg): 1 K/mm^3
- Recurrence of thrombocytopenia: Serious (Subject D, 20 mg): Serious
- Recurrence of thrombocytopenia: Study Days (No. Days Posttreatment) (Subject D, 20 mg): 193 (10) Days
- Recurrence of thrombocytopenia: Relation To E5501 (Subject D, 20 mg): Not related
- Recurrence of thrombocytopenia: Platelet Count (Subject E, 10 mg): 8 K/mm^3
- Recurrence of thrombocytopenia: Serious (Subject E, 10 mg): No
- Recurrence of thrombocytopenia: Study Days (No. Days Posttreatment) (Subject E, 10 mg): 209 (7) Days
- Recurrence of thrombocytopenia: Outcome (Subject F, 20 mg): Recovered
- Recurrence of thrombocytopenia: Platelet Count (Subject F, 20 mg): 8 K/mm^3
- Recurrence of thrombocytopenia: Serious (Subject F, 20 mg): Serious
- Recurrence of thrombocytopenia: Study Days (No. Days Posttreatment) (Subject F, 20 mg): 192 (11) Days
- Recurrence of thrombocytopenia: Relation To E5501 (Subject F, 20 mg): Not related
- Recurrence of thrombocytopenia: Outcome (Subject G, 2.5-12.5 mg): Recovered
- Recurrence of thrombocytopenia: Serious (Subject G, 2.5-12.5 mg): Serious
- Recurrence of thrombocytopenia: Study Days (No. Days Posttreatment) (Subject G, 2.5-12.5 mg): 179 (13) Days
- Recurrence of thrombocytopenia: Relation To E5501 (Subject G, 2.5-12.5 mg): Probably
- Recurrence of thrombocytopenia: Platelet Count (Subject G, 2.5-12.5 mg, recorded 3 days before the event): 16^g K/mm^3
- Recurrence of thrombocytopenia: Outcome (Subject H, 10-40 mg): Recovered
- Recurrence of thrombocytopenia: Platelet Count (Subject H, 10-40 mg): 4 K/mm^3
- Recurrence of thrombocytopenia: Serious (Subject H, 10-40 mg): No
- Recurrence of thrombocytopenia: Study Days (No. Days Posttreatment) (Subject H, 10-40 mg): 143 (16) Days
- Recurrence of thrombocytopenia: Relation To E5501 (Subject H, 10-40 mg): Not related
- Recurrence of thrombocytopenia: Outcome (Subject I, 10-20 mg, 1st entry): Recovered
- Recurrence of thrombocytopenia: Platelet Count (Subject I, 10-20 mg, 1st entry): 8 K/mm^3
- Recurrence of thrombocytopenia: Serious (Subject I, 10-20 mg, 1st entry): No
- Recurrence of thrombocytopenia: Study Days (No. Days Posttreatment) (Subject I, 10-20 mg, 1st entry): 181 (13) Days
- Recurrence of thrombocytopenia: Relation To E5501 (Subject I, 10-20 mg, 1st entry): Not related
- Recurrence of thrombocytopenia: Outcome (Subject I, 10-20 mg, 2nd entry): Recovered
- Recurrence of thrombocytopenia: Platelet Count (Subject I, 10-20 mg, 2nd entry): 9 K/mm^3
- Recurrence of thrombocytopenia: Serious (Subject I, 10-20 mg, 2nd entry): No
- Recurrence of thrombocytopenia: Study Days (No. Days Posttreatment) (Subject I, 10-20 mg, 2nd entry): 233 (65) Days
- Recurrence of thrombocytopenia: Relation To E5501 (Subject I, 10-20 mg, 2nd entry): Not related
- recurrences of thrombocytopenia deemed serious (in vivo): Three
- recurrences of thrombocytopenia within 2 weeks after discontinuation of E5501 (of 9 cases): 6 n
- subjects who potentially met the criteria for recurrence of thrombocytopenia (upon discontinuation, E5501 dose of 10 mg or above): 9 subjects
